Test results as given in PubChem BioAssay AID1963424 (Molecular Pharmacology Branch, DTP, NCI, 2024).
Where “and” joins values, the source holds several entries; their conditions need not be identical. Equal entries are not always repeated.

Test system: 327498-153-R-J2-PDC complex spheroid growth, % test/control
Test: Anticancer human tumor 327498-153-R-J2-PDC patient-derived uterine carcinosarcoma cell line growth inhibition [Asc]
Details: for viability, T/C: stronger effect = lower value
Summary of the method: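 Tumor cells were grown as multicellular spheroids with stromal HUVEC and mesenchymal stem cells and treated singly or in combination. Concentrations fell in half-log steps from the clinical Cmax, or from 10 microM where none was known.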

[1] = curve of first compound, second compound 0.01 µM
[2] = curve of first compound, second compound 0.0316 µM
[3] = curve of first compound, second compound 0.1 µM
[4] = curve of first compound, second compound 0.316 µM
[5] = curve of first compound, second compound 1 µM
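Further: spheroids exposed to compound for 7 days after 3 days of growth.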
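Wherever viability, T/C is given: 100% = DMSO vehicle control wells.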

For COc1c(OCCCN2CCOCC2)ccc2c3n(c(=NC(=O)c4cnc(N)nc4)nc12)CCN3 + CNC(C)C(=O)NC1CN(S(=O)(=O)c2cccc(S(=O)(=O)N3CCC4CCC(C(=O)NC(c5ccccc5)c5ccccc5)N4C(=O)C(NC(=O)C(C)NC)C3)c2)CCC2CCC(C(=O)NC(c3ccccc3)c3ccccc3)N2C1=O, the IC50 [1] was 144 nM, the IC50 [2] was 144 nM and the IC50 [3] was 135 nM. For the same molecule, the IC50 [4] was 137 nM, the IC50 [5] was 146 nM and the viability, T/C (second compound 0.01 µM, first compound 0.00316 µM) was 93.4%. It also gave a viability, T/C (second compound 0.01 µM, first compound 0.01 µM) of 92.7%, a viability, T/C (second compound 0.01 µM, first compound 0.0316 µM) of 92.3% and a viability, T/C (second compound 0.01 µM, first compound 0.1 µM) of 57.5%. The viability, T/C (second compound 0.01 µM, first compound 0.316 µM) was 27.6%, the viability, T/C (second compound 0.01 µM, first compound 1 µM) was 4.73% and the viability, T/C (second compound 0.0316 µM, first compound 0.00316 µM) was 96.7%. For the same molecule, the viability, T/C (second compound 0.0316 µM, first compound 0.01 µM) was 94.9%, the viability, T/C (second compound 0.0316 µM, first compound 0.0316 µM) was 79.1% and the viability, T/C (second compound 0.0316 µM, first compound 0.1 µM) was 62.1%. It also gave a viability, T/C (second compound 0.0316 µM, first compound 0.316 µM) of 27.8%, a viability, T/C (second compound 0.0316 µM, first compound 1 µM) of 3.85% and a viability, T/C (second compound 0.1 µM, first compound 0.00316 µM) of 106%. For the same molecule, the viability, T/C (second compound 0.1 µM, first compound 0.01 µM) was 89.5%, the viability, T/C (second compound 0.1 µM, first compound 0.0316 µM) was 85.7% and the viability, T/C (second compound 0.1 µM, first compound 0.1 µM) was 59%. For the same molecule, the viability, T/C (second compound 0.1 µM, first compound 0.316 µM) was 25.7%, the viability, T/C (second compound 0.1 µM, first compound 1 µM) was 3.38% and the viability, T/C (second compound 0.316 µM, first compound 0.00316 µM) was 111%. For the same molecule, the viability, T/C (second compound 0.316 µM, first compound 0.01 µM) was 110%, the viability, T/C (second compound 0.316 µM, first compound 0.0316 µM) was 86.1% and the viability, T/C (second compound 0.316 µM, first compound 0.1 µM) was 59%. It also gave a viability, T/C (second compound 0.316 µM, first compound 0.316 µM) of 26.9%, a viability, T/C (second compound 0.316 µM, first compound 1 µM) of 2.23% and a viability, T/C (second compound 1 µM, first compound 0.00316 µM) of 111%. The viability, T/C (second compound 1 µM, first compound 0.01 µM) was 95.2%, the viability, T/C (second compound 1 µM, first compound 0.0316 µM) was 85.1% and the viability, T/C (second compound 1 µM, first compound 0.1 µM) was 65%. The viability, T/C (second compound 1 µM, first compound 0.316 µM) was 24.8% and the viability, T/C (second compound 1 µM, first compound 1 µM) was 2.95%.

Cc1nc(N2CCC3(CC2)COC(C)C3N)c(CO)nc1Sc1ccnc(N)c1Cl (configuration not stated) + CNC(C)C(=O)NC1CN(S(=O)(=O)c2cccc(S(=O)(=O)N3CCC4CCC(C(=O)NC(c5ccccc5)c5ccccc5)N4C(=O)C(NC(=O)C(C)NC)C3)c2)CCC2CCC(C(=O)NC(c3ccccc3)c3ccccc3)N2C1=O was tested, and the IC50 [1] was > 3000 nM, the IC50 [2] was 1550 nM and the IC50 [3] was > 3000 nM. For the same molecule, the IC50 [4] was > 3000 nM, the IC50 [5] was > 3000 nM and the viability, T/C (second compound 0.01 µM, first compound 0.00949 µM) was 102%. For the same molecule, the viability, T/C (second compound 0.01 µM, first compound 0.03 µM) was 101%, the viability, T/C (second compound 0.01 µM, first compound 0.0949 µM) was 82.3% and the viability, T/C (second compound 0.01 µM, first compound 0.3 µM) was 71.6%. It also gave a viability, T/C (second compound 0.01 µM, first compound 0.949 µM) of 66.8%, a viability, T/C (second compound 0.01 µM, first compound 3 µM) of 48.7% and a viability, T/C (second compound 0.0316 µM, first compound 0.00949 µM) of 95.7%. For the same molecule, the viability, T/C (second compound 0.0316 µM, first compound 0.03 µM) was 90.2%, the viability, T/C (second compound 0.0316 µM, first compound 0.0949 µM) was 81.6% and the viability, T/C (second compound 0.0316 µM, first compound 0.3 µM) was 72.2%. It also gave a viability, T/C (second compound 0.0316 µM, first compound 0.949 µM) of 53.1%, a viability, T/C (second compound 0.0316 µM, first compound 3 µM) of 44% and a viability, T/C (second compound 0.1 µM, first compound 0.00949 µM) of 97.4%. The viability, T/C (second compound 0.1 µM, first compound 0.03 µM) was 92.7%, the viability, T/C (second compound 0.1 µM, first compound 0.0949 µM) was 87.8% and the viability, T/C (second compound 0.1 µM, first compound 0.3 µM) was 68.5%. It also gave a viability, T/C (second compound 0.1 µM, first compound 0.949 µM) of 56.2%, a viability, T/C (second compound 0.1 µM, first compound 3 µM) of 59.9% and a viability, T/C (second compound 0.316 µM, first compound 0.00949 µM) of 96.1%. It also gave a viability, T/C (second compound 0.316 µM, first compound 0.03 µM) of 93.5%, a viability, T/C (second compound 0.316 µM, first compound 0.0949 µM) of 91% and a viability, T/C (second compound 0.316 µM, first compound 0.3 µM) of 75.8%. The viability, T/C (second compound 0.316 µM, first compound 0.949 µM) was 63.7%, the viability, T/C (second compound 0.316 µM, first compound 3 µM) was 50% and the viability, T/C (second compound 1 µM, first compound 0.00949 µM) was 94.3%. It also gave a viability, T/C (second compound 1 µM, first compound 0.03 µM) of 87.7%, a viability, T/C (second compound 1 µM, first compound 0.0949 µM) of 78.6% and a viability, T/C (second compound 1 µM, first compound 0.3 µM) of 72.3%. The viability, T/C (second compound 1 µM, first compound 0.949 µM) was 59.8% and the viability, T/C (second compound 1 µM, first compound 3 µM) was 52.1%.

In the case of Cn1ncnc1[C@H]1c2n[nH]c(=O)c3cc(F)cc(c23)N[C@@H]1c1ccc(F)cc1, the viability, T/C (compound 0.000316 µM) is reported as 95.8% and 103% and 101%, the viability, T/C (compound 0.001 µM) is reported as 93.7% and 105% and 94% and the viability, T/C (compound 0.00316 µM) is reported as 88.7% and 110% and 91.1%. The viability, T/C (compound 0.01 µM) was 61.8% and 77.4% and 65.8%, the viability, T/C (compound 0.0316 µM) was 28.1% and 33.8% and 26.1% and the viability, T/C (compound 0.1 µM) was 12.9% and 16.1% and 13.9%. For the same molecule, the IC50 (curve of compound) was 15.1 nM and 20.5 nM and 15.8 nM.
